Laboratory results as given in PubChem BioAssay AID2305 (GlaxoSmithKline (GSK), 2010).
Values joined by “and” are separate entries in the source; they are usually repeats but may differ in a detail not shown here. Equal entries are not always repeated.

test system: P. falciparum 3D7 growth, pLDH absorbance; assay: blood-stage malaria parasite growth potency – strain 3D7, dose response (AID 2305)

`Cc1cccc(Cl)c1Nc1nnc(-c2cccc(C(=O)NC[C@@H]3CC[C@H]4C[C@@H]3C4(C)C)c2)o1` and `CCOc1ncccc1CN1CCC(N2CCc3cc(NC(=O)c4cc(C)on4)ccc32)C1` (stereo unspecified) are within 1.5-fold of each other in IC50: 270 nM for the first, 310 nM for the second.

`Cc1ccc(O)c(C(=O)c2cnc3c(c2)c(-c2ccc(F)cc2)c(C#N)c(=O)n3C)c1` and `Cc1ccc(NC(=O)Nc2ccc(Cl)cc2)cc1-c1cccc(C(=O)Nc2ccc(F)cc2)c1` are within 1.5-fold of each other in IC50: 970 nM for the first, 740 nM for the second.

Going from `CCN(CC)CCNc1c2ccc(Cl)cc2nc2ccc(OC)nc12` to `CCCCN(CCCC)Cc1cc(Nc2ccnc3cc(Cl)ccc23)ccc1O`, the IC50 falls from 740 nM to 20 nM (37-fold).

`Cc1ccc(Nc2nc(C)cc(NC3CCCC3)n2)cc1` and `CC(C)(C)c1nn(-c2ccc(Cl)cc2)c2[nH]c(=O)c(CNC3CCCC3)cc12` are within 1.5-fold of each other in IC50: 290 nM for the first, 230 nM for the second.

First: O=C1COc2cc(Cl)c(CNC3CCN(CCc4ccnc5c(F)cc(F)cc45)CC3)nc2N1
Second: COc1cc(F)c2ncc(Cl)c([C@H](O)CN3CCC(NCc4cc5c(cn4)OCCO5)CC3)c2c1
The IC50 of the first is 8-fold higher: 800 nM for the first, 100 nM for the second.

`Clc1ccc(CNC2CCN(CC3CCCCC3)CC2)cc1` and `O=C(NC1CC1)c1ccc(N2CCN(Cc3ccc(Cl)cc3)CC2)nc1` are within 1.5-fold of each other in IC50: 1110 nM for the first, 1340 nM for the second.

Going from `CCCc1c(C(=O)OCC)c2cc(O)ccc2n1-c1ccc(OC)cc1` to `CCOc1ccc(C(C)NC(=O)c2cc(Cl)ccc2OC)cc1OCC` (stereo unspecified), the IC50 rises from 140 nM to 970 nM (6.9-fold). The first is the more potent here.

`CN(C)c1ccc(CN2CCC(NC(=O)c3ccc(-c4ccc(N(C)C)cc4)s3)CC2)cc1` and `CN(C)c1ccc(N=C2N=C(Nc3ccc(N(C)C)cc3)c3ccccc32)cc1` are within 1.5-fold of each other in IC50: 1070 nM for the first, 850 nM for the second.

`CCCCCC(C)N=C(Nc1ccc(C#N)cc1O)Nc1cccc(Cl)c1Cl` (stereo unspecified) and `O=C(Nc1ccc(Cl)c(Cl)c1)Nc1ccccc1N1CCNCC1` are within 1.5-fold of each other in IC50: 800 nM for the first, 710 nM for the second.

Going from `Nc1nc(N)c2c(ccc3c2ccn3C2CCCCC2)n1` to `Cc1nc(N)nc(N)c1-c1ccc(Br)c([N+](=O)[O-])c1`, the IC50 rises from 120 nM to 200 nM (1.7-fold).

First: CSc1ccc(C=CC(=O)NC(=O)c2ccccc2O)cc1
Second: O=C(/C=C/c1ccc(Cl)c(Cl)c1)NC1CCC(CN2CCC(Cc3c[nH]c4ccccc34)CC2)CC1 (stereo unspecified)
The IC50 of the first is 3.1-fold lower: 290 nM for the first, 890 nM for the second.

Compared with `C#CCOc1ccc(N2C(N)=NC(N)=NC2(C)C)cc1`, `NC1=NC(Cc2ccccc2)N(c2ccc(Cl)cc2)C(N)=N1` (stereo unspecified) is 2-fold higher in IC50: 70 nM for the first, 140 nM for the second. The first is the more potent here.

Going from `CN(N=Cc1ccccc1)C(N)=NCCCC#Cc1cccc(CN2CCCC2)c1` to `Oc1ccc(-c2ccccc2)cc1CN1CCCCC1`, the IC50 falls from 1790 nM to 900 nM (2-fold). The second is the more potent here.

`COc1ccc(CC(=O)NC(CCN2CCC3(CC2)CN(S(C)(=O)=O)c2ccccc23)c2ccc(Cl)c(Cl)c2)cc1OC` (stereo unspecified) and `COC(=O)CCn1c(C2CCN(CC3CCC(NC(=O)/C=C/c4ccc(Cl)c(Cl)c4)CC3)CC2)nc2ccccc21` (stereo unspecified) are within 1.5-fold of each other in IC50: 1000 nM for the first, 950 nM for the second.

`Cc1ccc(Sc2ccc(NC(=O)CN3CCN(C(=O)c4ccco4)CC3)cc2)cc1C` and `Cc1ccc(C(=O)NCC2CCN(c3ccc(C(F)(F)F)cc3NC(=O)c3ccco3)CC2)cn1` are within 1.5-fold of each other in IC50: 910 nM for the first, 780 nM for the second.

Compared with `CC1CN=C(c2ccc(NC(=O)Nc3ccc(C4=NCC(C)N4)cc3)cc2)N1` (stereo unspecified), `O=C(Nc1ccc(C(F)(F)F)cc1)Nc1cccc([N+](=O)[O-])c1` is 2.3-fold higher in IC50: 380 nM for the first, 870 nM for the second. The first is the more potent here.

Compared with `Nc1cccc(CNCc2ccc(-c3ccc(-c4nc5ccc(F)cc5[nH]4)s3)cc2)c1`, `Cc1ncccc1C(=O)Nc1cccc(-c2cccc(-c3nc4ccc(C(F)(F)F)cc4[nH]3)c2)c1` is 1.6-fold lower in IC50: 990 nM for the first, 600 nM for the second. The second is the more potent here.

`COc1ccc2nccc([C@@H](O)CN3CCC(NCc4cc5ccccc5[nH]4)CC3)c2c1` and `O=C(NCCCCN1CCC(c2c[nH]c3ccccc23)CC1)c1sc(-c2ccc(C(F)(F)F)cc2)nc1CO` are within 1.5-fold of each other in IC50: 1100 nM for the first, 1200 nM for the second.

First: Cc1cc(F)ccc1Nc1nc(N(C)c2ccccc2)c2cc(OCCCN(C)C)ccc2n1
Second: CN(C)CC1CCCN1Cc1ccccc1-c1cnn(C)c(=O)c1Oc1ccc(F)cc1 (stereo unspecified)
The IC50 of the first is 1.7-fold lower: 720 nM for the first, 1220 nM for the second.

First: CN(C)CCC1CCCc2ccc(NC(=O)Nc3ccc(-c4ccncc4)c4ccccc34)cc21 (stereo unspecified)
Second: NC1CCN(c2nc(NCCCc3ccc(O)cc3)nc(NCc3ccccc3-c3ccccc3)n2)CC1
The IC50 of the first is 1.6-fold higher: 1070 nM for the first, 680 nM for the second. The second is the more potent here.

Going from `NC(=NCCCCCCCCN=C(N)Nc1ccc(Cl)cc1)Nc1ccc(Cl)cc1` to `NC(N)=Nc1nccc(NCc2ccccc2)n1`, the IC50 rises from 590 nM to 890 nM (1.5-fold).

First: Nc1nccc(-c2ccc3c(/C=C/c4ccccc4)cnc(N)c3c2)n1
Second: O=[N+]([O-])c1ccccc1C=NNc1c2c(nc3ccccc13)CCCC2
The IC50 of the first is 2-fold higher: 620 nM for the first, 310 nM for the second. The second is the more potent here.

`COc1ccccc1/C=C/C(=O)NC1CCC(CCN2CCc3ccc(-c4cc(C)no4)cc3CC2)CC1` (stereo unspecified) and `O=C(NC1CCC(CN2CCC(c3c[nH]c4ccccc34)CC2)CC1)c1ccc(-c2ccccc2[N+](=O)[O-])o1` (stereo unspecified) are within 1.5-fold of each other in IC50: 960 nM for the first, 770 nM for the second.

Compared with `COc1ccc(OC)c2c1C[C@@H]1NC[C@H]2c2c(OC)ccc(OC)c21`, `O=[N+]([O-])c1cccc(CNCC2CCN(Cc3ccc(C(F)(F)F)cc3)CC2)c1` is 3.9-fold lower in IC50: 970 nM for the first, 250 nM for the second.

`Nc1cc(C(F)(F)F)ccc1Cl` and `C[C@H]1CN(Cc2cccc(-c3cc(CNC(=O)c4cccc(CN5CCN(C/C=C/c6ccccc6)CC5)c4)ccc3F)c2)CCN1` are within 1.5-fold of each other in IC50: 740 nM for the first, 850 nM for the second.

`O=C(/C=C/c1cccc(F)c1)NC1CCC(CN2CCC(c3c[nH]c4ccccc34)CC2)CC1` (stereo unspecified) was tested, and the IC50 was 870 nM and 710 nM.
